Test results published in ChEMBL document CHEMBL5604064, “ASAP - DENV-1 NS2B-NS3 protease fluorescence dose response” (2024).
“And” between values parts separate entries of the source, which are not always exact repeats. Identical values can stand only once.

Target: T1, NS3 protease (dengue virus type 1, UniProt A0A0K0TQ28)
T1 sequence (A0A0K0TQ28 whole entry): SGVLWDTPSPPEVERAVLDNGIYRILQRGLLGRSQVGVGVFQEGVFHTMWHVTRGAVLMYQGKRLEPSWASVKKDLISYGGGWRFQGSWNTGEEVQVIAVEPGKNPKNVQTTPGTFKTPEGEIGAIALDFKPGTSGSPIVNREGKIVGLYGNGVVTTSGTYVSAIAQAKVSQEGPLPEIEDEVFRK
Test: Functional biochemical assay to identify treatments for viral infectious disease that targets Dengue virus type 1 NS2B-NS3 protease. Utilizing a direct enzyme activity measurement method, reading the fluorescence intensity is used to characterize the relative potency of inhibitors as IC50.
Set-up: species or system Nauru/West Pac/1974

Row | Compound | IC50
1 | N=C(N)NCCC[C@H](NC(=O)c1nccs1)C(=O)N[C@@H](CCCCN)C(=O)N[C@@H](C(N)=O)c1ccc(OCc2ccc(C(F)(F)F)cc2)cc1 | 920 nM and 1.03 µM (2×) and 1 µM and 926 nM and 1.69 µM and 865 nM
2 | N=C(N)NCCC[C@H](NC(=O)[C@H](Cc1ccc(CN)cc1)NC(=O)c1ccccc1)B(O)O | 0.31 µM and 0.315 µM
3 | COCCNC(=O)[C@H](Nc1ccc2c(c1)CNC2)c1cc(Cl)cc(C2CC2)c1 | > 99.5 µM
4 | O=C(NCC(F)F)[C@H](Nc1ccc2c(c1)CNC2)c1cc(Cl)cc(C2CC2)c1 | > 99.5 µM
5 | O=C(Nc1ccc2c(c1)CNCC2)c1cc(Cl)cc2[nH]ncc12 | > 99.5 µM
6 | CC(C)(C)c1cc(Br)cc(C(=O)Nc2ccc3c(c2)CNC3)c1 | > 99.5 µM
7 | Clc1ccc2[nH]cc(Cc3ccc(-c4nn[nH]n4)cc3)c2c1 | 62.9 µM
8 | CN1Cc2ccc(NC(=O)c3cc(Cl)cc4[nH]ncc34)cc2C1 | > 99.5 µM
9 | O=C(Nc1ccc2c(c1)CNC2)c1cccc(-c2cnco2)c1 | 20.3 µM
10 | CC(C)NC(=O)[C@H](Nc1ccc2c(c1)CNC2)c1cc(Cl)cc2[nH]ncc12 | 34.4 µM
11 | Cn1cc2cc(Cl)cc(C(=O)Nc3ccc4c(c3)CNC4)c2n1 | > 99.5 µM
12 | O=C(Nc1ccc2c(c1)CNC2)c1cc(Br)cc2ccccc12 | 83.7 µM
13 | O=C(Nc1ccc2c(c1)CNC2)c1cc(Cl)cc2c1CCC2 | > 99.5 µM
14 | CNC(=O)[C@H](Nc1ccc2c(c1)CNC2)c1cc(Cl)cc(C2CC2)c1 | > 99.5 µM
15 | O=C1Cc2c(cccc2C(=O)Nc2ccc3c(c2)CNC3)N1 | 11.3 µM
16 | O=C(Nc1ccc2c(c1)CNC2)c1cc(Br)cc2[nH]c(-c3ccccc3)nc12 | 1.24 µM
17 | N#C[C@H](Nc1ccc2c(c1)CNC2)c1cc(Cl)cc(C2CC2)c1 | > 99.5 µM
18 | O=C(Nc1cc(Cl)cc([C@H]2CN(Cc3ccccc3)C[C@@H]2c2cccc(-c3nn[nH]n3)c2)c1)OCc1ccccc1 | 6.63 µM
19 | Clc1cc(CNc2ccc3c(c2)CNC3)c2cn[nH]c2c1 | 30.9 µM
20 | CC(C)c1cc(Br)cc(C(=O)Nc2ccc3c(c2)CNC3)c1 | > 99.5 µM
21 | O=C(NC1CCOCC1)[C@H](Nc1ccc2c(c1)CNC2)c1cc(Cl)cc(C2CC2)c1 | > 99.5 µM
22 | Cn1cc(CNC(=O)[C@H](Nc2ccc3c(c2)CNC3)c2cc(Cl)cc(C3CC3)c2)cn1 | > 99.5 µM

Row | Compound | IC50
23 | O=C(Nc1cc(Cl)cc(C(=O)Nc2ccc3c(c2)CNC3)c1)OCc1ccccc1 | > 99.5 µM
24 | Cn1cc(CCc2nc3c(C(=O)Nc4ccc5c(c4)CNC5)cc(Cl)cc3[nH]2)cn1 | 21.6 µM
25 | O=C(Nc1ccc2c(c1)CNC2)c1cc(F)cc2[nH]ncc12 | 68.2 µM
26 | Cc1c(C(=O)Nc2cc([C@H]3CCOC3)ccn2)cc(C2CC2)n1C | > 99.5 µM
27 | O=C(Nc1ccc2c(c1)CNC2)c1cc(Cl)cc2ccncc12 | > 99.5 µM
28 | O=C1Cc2c(cc(Br)cc2C(=O)Nc2ccc3c(c2)CNC3)N1 | 84.6 µM
29 | CC(C)NC(=O)[C@H](Nc1ccc2c(c1)CNC2)c1cc(Cl)cc2[nH]c(-c3ccccc3)nc12 | 7.46 µM and 2.06 µM
30 | O=C(Nc1cc(Cl)cc([C@H](C#CCO)Nc2cccc(-c3nn[nH]n3)c2)c1)OCc1ccccc1 | 12.7 µM
31 | O=C(Nc1ccc2c(c1)CNC2)c1cccc2[nH]c(C(F)(F)F)cc12 | > 99.5 µM
32 | O=C(Nc1ccc2c(c1)CNC2)c1cc(Cl)cc2cn[nH]c12 | > 99.5 µM
33 | N#Cc1cccc(-c2nc3c(C(=O)Nc4ccc5c(c4)CNC5)cc(F)cc3[nH]2)c1 | 2.41 µM
34 | NCc1cccc([C@H]2C[C@@H]2c2cc(Cl)cc(NC(=O)OCc3ccccc3)c2)c1 | 25.3 µM
35 | C=CC[C@H]1NCc2cc(NC(=O)c3cccc4c3CC(=O)N4)ccc21 | > 99.5 µM
36 | N#C[C@H](Nc1cccc(-c2nn[nH]n2)c1)c1cc(Cl)cc(NC(=O)OCc2ccccc2)c1 | 10 µM
37 | O=C(Nc1ccc2c(c1)CNC2)c1cc(Cl)cc2[nH]ncc12 | 69.2 µM
38 | O=C(Nc1ccc2c(c1)CNC2)c1cc(Br)cc2[nH]c(=O)[nH]c12 | 32.7 µM
39 | N#C[C@H](Nc1ccc2c(c1)CNC2)c1cc(Cl)cc2[nH]ncc12 | > 99.5 µM
40 | O=C(Nc1cc(Cl)cc(C(=O)Nc2cccc([C@H]3C[C@H]3C(=O)O)c2)c1)OCc1ccccc1 | 25.2 µM
41 | Clc1cc([C@@H]2C[C@H]2c2cccc(C3CCNCC3)c2)c2cn[nH]c2c1 | 5.94 µM
42 | Cc1c(C(=O)Nc2cc(-c3cccnc3)ccn2)cc(C2CC2)n1C | 4.83 µM
43 | O=C(NCC(F)F)[C@H](Nc1ccc2c(c1)CNC2)c1cc(F)cc2[nH]ccc12 | > 99.5 µM
44 | C=CC[C@H]1NCc2cc(NC(=O)c3cc(Cl)cc4[nH]ncc34)ccc21 | > 99.5 µM

Row | Compound | IC50
45 | Cc1nc2c(C(=O)Nc3ccc4c(c3)CNC4)cc(Cl)cc2[nH]1 | > 99.5 µM
46 | O=C(Nc1cc(Cl)cc(-c2ccc3[nH]c(C(=O)O)cc3c2)c1)OCc1ccccc1 | 5.82 µM
47 | O=C(NCCC1CC1)[C@H](Nc1ccc2c(c1)CNC2)c1cc(Cl)cc(C2CC2)c1 | > 99.5 µM
48 | N#Cc1cc2c(cc1NC(=O)c1cc(F)cc3[nH]ncc13)CNC2 | 59.7 µM
49 | O=C(Nc1ccc2c(c1)CNC2)c1cc(Cl)cc2cc[nH]c12 | > 99.5 µM
50 | C=CC[C@H]1NCc2cc(NC(=O)c3cc(F)cc4[nH]ncc34)ccc21 | > 99.5 µM
51 | O=C(Nc1cc(Br)c2c(c1)CNC2)c1cc(F)cc2[nH]ncc12 | 75.5 µM
52 | C=CC[C@H](Nc1cc(Cl)cc(NC(=O)OCc2ccccc2)c1)c1cccc(-c2nn[nH]n2)c1 | 6.41 µM
53 | CNC(=O)[C@H](Nc1cc(CN)cc(C(=O)O)c1)c1cc(Cl)cc(C2CC2)c1 | > 99.5 µM
54 | O=C(NCC(F)F)[C@H](Nc1ccc2c(c1)CNC2)c1cc(F)cc2[nH]ncc12 | > 99.5 µM
55 | O=C1Cc2c(cc(F)cc2C(=O)Nc2ccc3c(c2)CNC3)N1 | 36.2 µM
56 | O=C(Nc1cc(Cl)cc([C@H]2C[C@@H]2c2cccc(C3CCNCC3)c2)c1)OCc1ccccc1 | 6.28 µM
57 | CC(C)CNC(=O)c1cc(Cl)ccc1NS(=O)(=O)c1ccc(Oc2ccccc2Cl)cc1 | 14.4 µM
58 | C=CC[C@H]1NCc2cc(N[C@H](C(=O)NC(C)C)c3cc(Cl)cc4[nH]ncc34)ccc21 | 81.8 µM
59 | O=C(NC1CCOCC1)[C@H](Nc1ccc2c(c1)CNC2)c1cc(Cl)cc2[nH]ncc12 | > 99.5 µM
60 | CNC(=O)[C@H](Nc1cc(Cl)cc(NC(=O)OCc2ccccc2)c1)c1cccc(-c2nn[nH]n2)c1 | 46.5 µM
61 | O=C(Nc1ccc2c(c1)CNC2)c1cc(F)c2[nH]ccc2c1 | > 99.5 µM
62 | N[C@H]1CC[C@H](c2ccc(NC(=O)c3cc(Cl)cc(NC(=O)OCc4ccccc4)c3)cc2)C1 | 8.49 µM
63 | Cn1c(=O)[nH]c2c(C(=O)Nc3ccc4c(c3)CNC4)cc(Br)cc21 | > 99.5 µM
64 | OCC#C[C@H](Nc1ccc2c(c1)CNC2)c1cc(Cl)cc2[nH]ncc12 | 19.4 µM
65 | O=C(Nc1ccc2c(c1)CNC2)c1cc(F)cc2c1CCC2 | > 99.5 µM
66 | NCc1cccc(NC(=O)c2cc(Cl)cc(NC(=O)OCc3ccccc3)c2)c1 | 51.1 µM

Row | Compound | IC50
67 | c1cc(C2CCN(Cc3c[nH]c4ccccc34)CC2)c2ccncc2c1 | > 99.5 µM
68 | Cc1cccc(-c2nc3c(C(=O)Nc4ccc5c(c4)CNC5)cc(Cl)cc3[nH]2)c1O | 4.26 µM
69 | O=C(Nc1ccc2c(c1)CNC2)c1cccc2[nH]c(=O)[nH]c12 | 65.5 µM
70 | O=C(Nc1ccc2c(c1)CNC2)c1cc(Cl)cc(C(F)(F)F)n1 | 7.25 µM
71 | O=C(Nc1ccc2c(c1)CNC2)c1cc(F)cc2[nH]c(-c3ccc(F)cc3)nc12 | 2.8 µM
72 | CCc1cc(C(=O)Nc2cccc(-n3nn[nH]c3=O)c2)sc1-c1ccc(Cl)cc1 | 11.4 µM
73 | Cc1c(C(=O)Nc2cc(CCCN)ccn2)cc(C2CC2)n1C | 25.5 µM
74 | O=C(Nc1ccc2c(c1)CNC2)c1cccc2nc(O)ccc12 | > 99.5 µM
75 | NCc1ccc([C@H]2C[C@@H]2c2cc(Cl)cc(NC(=O)OCc3ccccc3)c2)cc1 | 8.89 µM
76 | CCOCCNC(=O)[C@H](Nc1ccc2c(c1)CNC2)c1cc(Cl)cc2[nH]ncc12 | > 99.5 µM
77 | O=C(Nc1cc(Cl)cc(C(=O)Nc2ccc3c(c2)CCNC3)c1)OCc1ccccc1 | 47.7 µM
78 | O=C1Cc2cc(C(=O)Nc3ccc4c(c3)CNC4)ccc2N1 | 5.26 µM and 4.47 µM
79 | Cc1ccc(NC(=O)c2cc(Cl)cc(NC(=O)OCc3ccccc3)c2)cc1CN | > 99.5 µM
80 | O=C(Nc1ccc2c(c1)CNC2)c1cc(F)cc2[nH]c(-c3ccccc3)nc12 | 3.67 µM
81 | O=C(Nc1ccc2c(c1)CNC2)c1cc(Cl)cc2nn(-c3ccccc3)nc12 | 2.69 µM
82 | Cc1[nH]c2ccccc2c1CN1CCC(c2c[nH]c3ncccc23)CC1 | > 99.5 µM
83 | O=C(Nc1ccc2c(c1)CNC2)c1cccc2cn[nH]c12 | 49.9 µM
84 | O=C(Nc1cc2c(cc1Br)CNC2)c1cc(F)cc2[nH]ncc12 | > 99.5 µM
85 | O=C(Nc1ccc2c(c1)CNC2)c1ccc2[nH]ccc2c1 | > 99.5 µM
86 | CNC(=O)[C@H](Nc1cc(CN)cc(-c2nn[nH]n2)c1)c1cc(Cl)cc(C2CC2)c1 | > 99.5 µM
87 | O=C(Nc1cc(Cl)cc(C(=O)Nc2cccc(-n3nn[nH]c3=O)c2)c1)OCc1ccccc1 | 11.6 µM
